This is an account of results in patent US20240285723A1, “COMBINATION COMPOSITIONS FOR THE TREATMENT OF PATHOGEN INFECTIONS AND ASSOCIATED COMPLICATIONS” (priority 2021, published 2024).

The test system of one data set is LPS-injected mice. Briefly: LPS-induced septic shock mouse model: survival and murine sepsis score (MSS). Format: in vivo. Conditions: for disease progression (MSS), compound alone / survival (MSS<3), compound alone: BCP 25 mg/kg or pregnenolone 10 mg/kg i.p. every 12 hrs from 24 h before LPS, n=7. Here is the method: Male wild type 8-10 weeks old mice of inbred strain C57BL/6J-RCC were obtained from Envigo Ltd. All experiments were in accordance and with the approval of the institutional animal care and use committee of Tel-Aviv University for these experiments (permit number 01-20-022). The mice were divided into treatment groups 24 hours before LPS administration. All treatments were administered intraperitoneally (IP). OGP was administered at the indicated doses only twice, 24 hrs before LPS and right before the LPS at a dose of 0.5, 5 or 15 μg/kg. Olorinab was administered at 0.33, 1, or 5 mg/kg twice a day starting 24 hours before LPS. DHEA was injected once a day at a dose of 30 mg/kg, starting 24 hr before LPS injection. β-Caryophyllene (BCP or BCP, used herein interchangeably) and Pregnenolone were injected every 12 hours starting 24 h before the LPS injection. A single IP injection of LPS was administered at 25 μg/gr dose. This study had 2 control groups as indicated in the experiments below. One that received PBS instead of the LPS injection (‘PBS’), and one that received PBS instead of the treatments (CB2 agonist or steroid) before the LPS injection (‘LPS’). For humane reasons murine sepsis score (MSS) was used as a surrogate for survival (Mai et al. Intensive Care Med Exp, 2018 Jul. 27; 6(1):20. doi: 10.1186/s40635-018-0184-3). A low MSS score (0-2) served as a surrogate for survival while mice that reached the score 3 were defined as critically ill and were euthanized.
Statistical analyses—For survival experiments, Gehan-Breslow-Wilcoxon test was used for multiple groups comparison. For disease progression Dunnett's multiple comparisons test was used. Differences between groups were considered significant when P<0.05.
A dose response experiment was conducted to test the potential effect of 5aa-OGP in the sepsis model (FIG. 1A). A single injection of 5aa-OGP was administered i.p. at 3 different doses, 0.5 μg/kg, 5 μg/kg and 15 μg/kg, 24 hours prior to the LPS injection; these concentrations were chosen based on the previous works in the lab.
In a separate experiment, mice received a single i.p. injection of the optimal dose of 5aa-OGP (5 μg/kg) and 24 hours later were intraperitoneal (i.p) injected with a lethal dose of LPS. Control mice received a single PBS injection 24 hours prior to LPS injection.
In order to test the therapeutic potential of another CB2 agonist, olorinab was tested in improving survival rate in a mouse model of septic shock induced by LPS injection. Olorinab was administered i.p. 24 hours prior to LPS injection followed by twice-daily injections of olorinab.
The combinations DHEA+olorinab and DHEA+5aa-OGP were tested versus each compound alone and versus vehicle only (no treatment) in LPS-injected mice. The mice received the first dose of treatment 24 hr before LPS injection in the treated groups. All the injections were given i.p., olorinab doses were administered twice a day, DHEA and 5aa-OGP were administered once a day. LPS was given only once.
The combination BCP+Pregnenolone was tested versus each compound alone and versus vehicle only (no treatment) in LPS-injected mice. Mice were pre-treated with ß-Caryophyllene (BCP. 25 mg/kg) and pregnenolone (Preg, 10 mg/kg), separately (FIG. 4A) and in combination 24 and 12 hrs before LPS injection (25 mg/kg) and then every 12 hrs. All the injections were given i.p., twice a day. LPS was given only once. A Murine Septic Score (MSS) was recorded every 12 hours (FIGS. 4A and 4C). Survival (FIGS. 4B and 4D) was defined as MSS<3. * P<0.05, n=7.

In another data set the test system is polymicrobial sepsis. Conditions: mice; Oberbeck et al. 2001; cited from earlier work.
Data set [1] relates to patients with dcSSc or dermatomyositis. Conditions: Phase II; dcSSc and dermatomyositis with active skin involvement; cited from earlier work.
A further data set relates to COVID-19 patients. Conditions: COVID-19 patients who did not require oxygen; cited from earlier work.
The next data set relates to T-cells. Briefly: T-cell subsets in spleen and bone marrow of treated mice. Format: in vivo, mouse. Conditions: 5 μg/kg/day daily for 5 days; 12-week-old mice. The text has this: This is likely due to its strong immunosuppressive actions, including a severe weakening of the humoral/acquired immune system. Our proposed approach uses CB2 agonists that have immunomodulatory roles. On one hand, OGP strongly suppresses the innate immune system, exemplified here as inhibition of cytokine expression by activated macrophages (FIG. 6), and suppression of xylene-induced ear edema (FIG. 7). On the other hand, OGP has no suppressive effects on the adaptive/acquired system, exemplified here by the unaffected number of T cell subsets in mice treated with 5aa-OGP (FIG. 7). 12-week-old mice were injected with 5 μg/kg/day 5aa-OGP, 3 mg/kg/day HU910, or with a vehicle control daily for 5 days. The spleen and bone marrow (BM) were analyzed.

Where no end group is shown, it is not given here.

With `C=C1CC/C=C(\C)CC[C@@H]2[C@@H]1CC2(C)C` [BCP, β-caryophyllene], in the data set with LPS-injected mice, the “disease progression (MSS), compound alone” value was “slight beneficial effect” and the “survival (MSS<3), compound alone” value is “no significant effect”. `C[C@]12CC[C@H](O)CC1=CC[C@@H]1[C@@H]2CC[C@]2(C)C(=O)CC[C@@H]12` [DHEA, Dehydroepiandrosterone]: in the data set on polymicrobial sepsis, the TNF-α release result is given as “reduction”, the “activity of T-cellular immunity” value is reported as “improved activity” and the “survival in septic challenge” value is reported as “increased survival”.

As to `CCCCCCC(C)(C)c1cc(O)c2c(c1)OC(C)(C)[C@@H]1CC=C(C(=O)O)C[C@@H]21` [Lenabasum], the “physician-assessed and patient-reported efficacy outcomes” value in data set [1] was “improvement”. On to `CC(=O)[C@H]1CC[C@H]2[C@@H]3CC=C4C[C@@H](O)CC[C@]4(C)[C@H]3CC[C@]12C` [Pregnenolone, pregn-5-en-3β-ol-20-one], for which, in the data set with LPS-injected mice, the “disease progression (MSS), compound alone” value is “no significant effect” and the “survival (MSS<3), compound alone” value was “no significant effect”. `C[C@@H]1C[C@H]2[C@@H]3CCC4=CC(=O)C=C[C@]4(C)[C@@]3(F)[C@@H](O)C[C@]2(C)[C@@]1(O)C(=O)CO` [dexamethasone]: in the data set on COVID-19 patients, the “mortality, patients who did not require oxygen” value is “significantly increased mortality”. `CC(C)(C)[C@@H](CO)NC(=O)c1nn(-c2c[n+]([O-])ccn2)c2c1C[C@@H]1C[C@H]21` [olorinab]: the “survival percentage at 0.33 mg/kg” value in the data set on LPS-injected mice (0.33 mg/kg twice daily, i.p.) is given as “best survival percentage”. Further, the “survival percentage at 1 mg/kg” value in the data set with LPS-injected mice (1 mg/kg twice daily, i.p., p<0.05) is on record as “best survival percentage”. Further, the “survival of LPS treated mice, different doses” value in the data set with LPS-injected mice (olorinab 0.33, 1 or 5 mg/kg i.p. twice daily from 24 h before LPS) was “beneficial effect”. Consider YGFGG [5aa-OGP], for which the “effect on T-cells in spleen and bone marrow” value with T-cells was “did not affect T-cells”.
